Values quoted from earlier work in patent US20220346436A1, “ORALLY DISSOLVING FILMS” (NICOVENTURES TRADING LIMITED, priority 2021, published 2022).

What was measured:
[1] = water / aqueous environment (e.g., saliva)
[2] = when isolated; isomerises to trans-bixin

Compound	solubility [1]	logP value	chemical stability [2]
CC(/C=C/C=C(C)/C=C/C(=O)O)=C\C=C\C=C(C)\C=C\C=C(C)\C=C\C(=O)O (stereo in doubt) [norbixin, (2E,4E,6E,8E,10E,12E,14E,16E,18E)-4,8,13,17-tetramethylicosa-2,4,6,8,10,12,14,16,18-nonaenedioic acid]	water soluble		
C=C(C)[C@@H]1CCC(C)=C[C@H]1c1c(O)cc(CCCCC)cc1O [CBD, cannabidiol, reference compound]	insoluble in an aqueous environment	about 6.5	
COC(=O)/C=C/C(C)=C\C=C\C(C)=C\C=C\C=C(C)\C=C\C=C(C)\C=C\C(=O)O [bixin, (2E,4E,6E,8E,10E,12E,14E,16Z,18E)-20-methoxy-4,8,13,17-tetramethyl-20-oxoicosa-2,4,6,8,10,12,14,16,18-nonaenoic acid]	insoluble in water		chemically unstable when isolated
